{"source": "patent US10422788B2", "about": "“Profiling peptides and methods for sensitivity profiling” (Tolero Pharmaceuticals, Inc., priority 2016, dated 2019)", "assay_type_in_all_cases": "cell-based", "key": {"OCI-AML3 cells": {"tested_on": "OCI-AML3 cells", "test": "Titration of concentrations of profiling peptides, Mcl-1 dependency percentage (JC-1)", "conditions": "profiling peptide at 10 μM; FIG. 2", "procedure": "Briefly, frozen OCI-AML3 cell stocks were rapidly thawed, and cell viability was determined by Trypan Blue exclusion. Cells were washed in PBS and resuspended in DTEB (or MEB) buffer (135 mM Trehalose [or 150 mM Mannitol], 10 mM HEPES, 50 mM KCl, 20 μM EGTA, 20 μM EDTA, 0.1% BSA, 5 mM succinate). The profiling peptides and NOXA (SEQ ID NO:16) were reconstituted in water to make working solutions allowing for final concentrations of: SEQ ID NO:1 (100 μM), SEQ ID NO:1 (30 μM), SEQ ID NO:1 (10 μM), and NOXA (100 μM). […] Profiling peptides, controls, or NOXA (for comparison purposes) were first added to a microplate. […] Fluorescence signal of each well was assessed using an Envision multilabel plate reader at Ex475/Em530 and Ex530/Em595.\nStatistical Analysis: For each peptide, the Mcl-1 dependency percentage was calculated using the following formula that determines the dependency:\n[formula] Where PC is the fluorescence intensity of the positive control, NC is the fluorescence intensity of the negative control, and Pep is the fluorescence intensity of the peptide at the noted concentration."}, "MOLM-13 cells [1]": {"tested_on": "MOLM-13 cells", "test": "Whole cell assay, JC-1 mitochondrial potential, cells lacking digitonin (FIG. 1B)", "conditions": "100 μM peptide, no digitonin", "procedure": "Briefly, frozen MOLM-13 and OCI-AML3 cell stocks were rapidly thawed, and cell viability was determined by Trypan Blue exclusion. Cells were washed in PBS and resuspended in DTEB (or MEB) buffer (135 mM Trehalose [or 150 mM Mannitol], 10 mM HEPES, 50 mM KCl, 20 μMI EGTA, 20 μM EDTA, 0.1% BSA, and 5 mM succinate). The profiling peptides and NOXA ([…]; SEQ ID NO:16) were reconstituted in water to make working solutions allowing for final concentrations of: SEQ ID NO:1 (100 μM), SEQ ID NO:14 (100 μM), SEQ ID NO:15 (100 μM), and NOXA (100 μM). […] Profiling peptides, controls, or NOXA (for comparison purposes) were first added to a microplate. Cells (4×10^5) resuspended in DTEB or MEB buffers were then added to a staining solution ([…], 40 μM JC-1, 1 M 2-mercaptoethanol, DTEB or MEB buffer), before being added to the wells of the microplate in the above (for non-digitonin-treated samples, digitonin was not added to the staining solution above). The mixture was then incubated for up to 2 hours at 30° C., in order for cell permeabilization (if needed), delivery of peptides or compounds, and mitochondrial depolarization to occur. Fluorescence signal of each well was assessed using an Envision multilabel plate reader at Ex475/Em530 and Ex530/Em595. […]"}, "MOLM-13 cells [2]": {"tested_on": "MOLM-13 cells", "test": "Addition of ryanodine to the Example 5 assay", "conditions": "20 nM Ryanodine; Tat-mediated calcium release from the ER; FIG. 4"}}, "data": [{"substance": "RPEIWMTQGLRRLGDEINAYYAR (Exemplary Mcl-1 Binding Domain sequence) [SEQ ID NO:1]", "values": [{"measurement": "Mcl-1 dependency percentage compared to NOXA at 100 μM", "setting": "OCI-AML3 cells", "value": "comparable value"}]}, {"substance": "RPEIWMTQGLRRLGDEINAYYARGGGYGRKKRRQRRR (profiling peptide sequence) [SEQ ID NO:15]", "values": [{"measurement": "activity compared to the positive control (FCCP)", "setting": "MOLM-13 cells [1]", "value": "exceeded the activity of the positive control"}]}, {"substance": "ryanodine", "values": [{"measurement": "nonspecific dye uptake", "setting": "MOLM-13 cells [2]", "value": "prevented nonspecific dye uptake"}]}]}
